Results: patent US20210230159A1, “4H-PYRIDO[1,2-A]PYRIMIDIN-4-ONE COMPOUNDS” (Prana Biotechnology Limited, priority 2014, published 2021)

Experiment: Hydrogen peroxide (H2O2) inhibition assay (fluorescence, DCF/horseradish peroxidase)
Assay type: biochemical
Conditions: for IC50: HCl salt tested where HCl salt MW is given; for Fe-ASC % (cf. 0.4 uM Fe/Asc; cf. CQ, CQ = 100%) / Cu % ASC (cf. CQ = 100%) / Zn % ASC (cf. CQ = 100%): ascorbic acid as reducing substrate; for Fe-ASC % (cf. 0.4 uM Fe/Asc; cf. CQ, CQ = 100%) / Fe-DA % (cf. 0.4 uM Fe/DA; cf. CQ, CQ = 100%): test compound 0.4 μM, lower values = greater inhibition of H2O2; for Fe-DA % (cf. 0.4 uM Fe/DA; cf. CQ, CQ = 100%): dopamine as reducing substrate
Experimental: Assay 1. Hydrogen Peroxide Assay
H2O2 is a strong oxidizer and a highly reactive oxygen species that is known to be toxic to surrounding proteins and organelles, inhibiting their function. […] […] H2O2 generated by the system is assessed by measuring the specific fluorescence profile at the excitation and emission wavelengths of 485 and 530 nm respectively, in the presence of test compound. Test compounds were dissolved in DMSO and tested at concentrations of 0.4 μM. Test compounds are ranked according to their capacity to inhibit H2O2 generated by the system where lower values reflect greater ability to inhibit H2O2 production.

Structure (SMILES) | IC50 | Fe-ASC % (cf. 0.4 uM Fe/Asc; cf. CQ, CQ = 100%) | Fe-DA % (cf. 0.4 uM Fe/DA; cf. CQ, CQ = 100%) | Cu % ASC (cf. CQ = 100%) | Zn % ASC (cf. CQ = 100%)
O=C(NCc1ccc(F)c(F)c1)c1cnc2c(O)cccn2c1=O [Compound 1454] | 1 µM | 65% ASC | 46% | – | –
O=c1cc(CNCc2ccc(C(F)(F)F)cc2)nc2c(O)cccn12 [Compound 1455] | 0.35 µM | 82% ASC | 47% | – | –
O=c1cc(CNC2CCCCC2)nc2c(O)cccn12 [Compound 1456] | 0.39 µM | 122% ASC | 58% | – | –
O=c1cc(CNCC2CCCCC2)nc2c(O)cccn12 [Compound 1458] | 0.58 µM | 137% ASC | 43% | – | –
O=c1cc(CNCc2ccc(F)c(F)c2)nc2c(O)cccn12 [Compound 1459] | 0.33 µM | 110% ASC | 48% | – | –
O=C(NC1CCCCC1)c1cnc2c(O)cccn2c1=O [Compound 1460, N-cyclohexyl-9-hydroxy-4-oxo-4H-pyrido[1,2-a]pyrimidine-3-carboxamide] | 0.44 µM | 92% ASC | 29% | – | –
O=C(NCC1CCCCC1)c1cnc2c(O)cccn2c1=O [Compound 1461] | 0.49 µM | 59% ASC | 57% | – | –
CCCCCCCNC(=O)C1=CNC2C(O)=CC=CN2C1=O (stereo not shown) [Compound 1462] | 0.46 µM | 72% ASC | 54% | – | –
COc1ccc(CNCc2cc(=O)n3cccc(O)c3n2)cc1OC [Compound 1463] | 0.59 µM | 158% ASC | 73% | – | –
O=c1cc(CNCc2ccc(OC(F)(F)F)cc2)nc2c(O)cccn12 [Compound 1464] | 0.47 µM | 135% ASC | 47% | – | –
Cc1ccc(O)c2nc(CN(C)C)cc(=O)n12 [Compound 1466] | 0.34 µM | >234% ASC | 47% | – | –
Cc1ccc(O)c2nc(CNCc3ccc(F)cc3)cc(=O)n12 [Compound 1467] | 0.44 µM | 74% ASC | 42% | – | –
Cc1ccc(O)c2nc(CNC3CCCCC3)cc(=O)n12 [Compound 1468] | 0.21 µM | 169% ASC | 39% | – | –
Cc1ccc(O)c2nc(CNCc3ccc(Cl)cc3)cc(=O)n12 [Compound 1469] | 0.5 µM | 63% ASC | 43% | – | –
CCCNCc1cc(=O)n2c(C)ccc(O)c2n1 [Compound 1470] | 0.35 µM | >234% ASC | 38% | – | –
Cc1ccc(O)c2nc(CN3CCCCC3)cc(=O)n12 [Compound 1471] | 0.3 µM | 125% ASC | 62% | – | –
CN(CCc1ccccn1)Cc1cc(=O)n2cccc(O)c2n1 [Compound 1476] | 0.23 µM | 122% ASC | 46% | – | –
Cc1ccc(CNCc2cc(=O)n3cccc(O)c3n2)cc1 [Compound 1478] | 3.12 µM | 198% ASC | 75% | – | –
CN(Cc1ccc(F)cc1)Cc1cc(=O)n2cccc(O)c2n1 [Compound 1479] | 0.46 µM | 147% ASC | 42% | – | –
CCCCN(C)Cc1cc(=O)n2cccc(O)c2n1 [Compound 1485] | 0.53 µM | 159% ASC | 57% | – | –
CCN(CC)Cc1cc(=O)n2c(C)ccc(O)c2n1 [Compound 1490] | 0.4 µM | 178% ASC | 55% | – | –

Structure (SMILES) | IC50 | Fe-ASC % (cf. 0.4 uM Fe/Asc; cf. CQ, CQ = 100%) | Fe-DA % (cf. 0.4 uM Fe/DA; cf. CQ, CQ = 100%) | Cu % ASC (cf. CQ = 100%) | Zn % ASC (cf. CQ = 100%)
C#CCN(C)Cc1cc(=O)n2c(C)ccc(O)c2n1 [Compound 1491] | 0.3 µM | >222% ASC | 48% | – | –
Cc1ccc(O)c2nc(CN(C)Cc3ccc(F)cc3)cc(=O)n12 [Compound 1500] | 0.36 µM | 171% ASC | 42% | – | –
Cc1ccc(O)c2nc(CNCC3CCCCC3)cc(=O)n12 [Compound 1503] | 0.23 µM | 204% ASC | 42% | – | –
Cc1ccc(O)c2nc(CNCCc3ccccn3)cc(=O)n12 [Compound 1504] | 0.31 µM | 160% ASC | 33% | – | –
CC1CCN(Cc2cc(=O)n3cccc(O)c3n2)CC1 [Compound 1506] | > 10 µM | 161% ASC | 48% | – | –
Cc1ccc(O)c2nc(CN3CCC(C)CC3)cc(=O)n12 [Compound 1508] | 0.17 µM | 148% ASC | 32% | – | –
O=c1cc(CN2CCN(Cc3ccccc3F)CC2)nc2c(O)cccn12 [Compound 1515] | 1 µM | 103% ASC | 54% | – | –
CN(Cc1cc(=O)n2cccc(O)c2n1)Cc1ccccc1F [Compound 1516] | 0.3 µM | 102% ASC | 52% | – | –
CN(Cc1cccc(F)c1)Cc1cc(=O)n2cccc(O)c2n1 [Compound 1517] | 0.35 µM | 105% ASC | 55% | – | –
CN(Cc1cccc(Cl)c1)Cc1cc(=O)n2cccc(O)c2n1 [Compound 1518] | 0.58 µM | 84% ASC | 49% | – | –
Cc1ccc(O)c2nc(CN(C)Cc3cccc(Cl)c3)cc(=O)n12 [Compound 1519] | 0.35 µM | 100% ASC | 47% | – | –
CN(Cc1cc(=O)n2cccc(O)c2n1)C1CCCCC1 [Compound 1521] | > 10 µM | 123% ASC | 50% | – | –
Cc1ccc(O)c2nc(CN3CCN(Cc4ccccc4F)CC3)cc(=O)n12 [Compound 1522-] | 0.44 µM | 156% ASC | 47% | – | –
Cc1ccc(O)c2nc(CN(C)C3CCCCC3)cc(=O)n12 [Compound 1523] | 0.7 µM | 135% ASC | 49% | – | –
Cc1ccc(O)c2nc(CN(C)Cc3cccc(F)c3)cc(=O)n12 [Compound 1525] | 0.32 µM | 105% ASC | 46% | – | –
Cc1ccc(O)c2nc(CN(C)Cc3ccccc3F)cc(=O)n12 [Compound 1527] | 0.33 µM | 133% ASC | 64% | – | –
Cc1cccc(NCc2cc(=O)n3c(C)ccc(O)c3n2)n1 [Compound 1531] | 1.48 µM | – | – | – | –
O=C(c1cnc2c(O)cccn2c1=O)N1CCCC1 [Compound 1532] | 0.9 µM | – | – | – | –
O=C(c1cnc2c(O)cccn2c1=O)N1CCCCC1 [Compound 1533] | 1.19 µM | – | – | – | –
CCCc1cnc2c(O)c(-c3cccnc3)c(Cl)cn2c1=O [Compound 1629, 7-Chloro-9-hydroxy-3-propyl-8-(pyridin-3-yl)-4H-pyrido[1,2-a]pyrimidine-4-one] | – | – | – | Cu 204% ASC | Zn 130% ASC
CCCc1cnc2c(O)c(-c3c(C)noc3C)c(Cl)cn2c1=O [Compound 1630] | – | – | – | Cu 213% ASC | Zn 129% ASC
